Measurements as given in the METLIN SMRT retention time set (Domingo-Almenara et al. 2019).

Assay: gradient 5% acetonitrile 3 min, to 50% in 2 min, to 85% in 15 min, held 3 min, 100 µL/min
Settings: column: Zorbax Extend-C18 2.1 x 50 mm; eluents: water / acetonitrile, 0.1% formic acid
Summary of the method: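 Pure standards were analyzed in mixtures of ~100 molecules using HPLC coupled to a quadrupole time-of-flight mass spectrometer, in both positive and negative ionization mode. Separation used a Zorbax Extend-C18 column (2.1 × 50 mm, 1.8 μm) at 100 μL/min, with water and acetonitrile each containing 0.1% formic acid. Dead and dwell volumes were 40 μL and 900 μL, and data were collected over 3 months. Retention time was read from computationally picked adduct peaks, each inspected manually.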

SMILES | RP-LC retention time
CCn1c(=O)sc2cc(S(=O)(=O)N3CCC(C(=O)NCc4ccc(C)cc4)CC3)ccc21 | 932 s
CCCCn1cc(S(=O)(=O)NCc2ccccc2F)c2cccnc21 | 754 s
CCC(C)(C)NC(=O)CN1C(=O)CCCc2cc(S(=O)(=O)N3CCC(C)CC3)ccc21 | 963 s
CCC1CCCCN1Cc1nc(Cn2ccn3nc(-c4ccc(C)c(C)c4)cc3c2=O)no1 (stereo not drawn) | 765 s
COc1ccc(S(=O)(=O)N2CCCC(C(=O)NC3CC3)C2)cc1Cl (stereo not drawn) | 780 s
CCOC(=O)C1CCN(Cc2cn3c(-c4ccc(OC)cc4)nnc3s2)CC1 | 563 s
Cc1ccn2cc(CC(=O)Nc3ccc(F)cc3)nc2c1 | 595 s
Cc1nc(-c2cn(C)c3ncccc23)sc1C(=O)N1CCN(c2ccccc2)CC1 | 932 s
O=S(=O)(c1ccc2c(c1)CCC2)N1CCC(Cc2nc(-c3cccnc3)n[nH]2)C1 (stereo not drawn) | 694 s
COc1cccc(NC(=O)N(C)CCc2noc(COc3ccc(F)cc3)n2)c1 | 856 s
O=C(NCc1ccc2c(c1)OCO2)C1CCCN(c2nn3c(=O)c4c(nc3s2)CCCC4)C1 (stereo not drawn) | 719 s
COc1cccc(-c2nc(C3CCN(S(=O)(=O)c4ccc(C)c(F)c4)CC3)no2)c1 | 1170 s
O=C(Nc1cccc(Cl)c1F)N1CCC(N2CC(F)(F)C[C@H]2COCC2CC2)CC1 | 762 s
CCN(CC)c1nc(C(=O)N2CCN(C(C)C)CC2)nc2nc(C)cc(C)c12 | 543 s
COc1ccc(S(=O)(=O)NCCc2cn(CC(C)C)c3ncccc23)cc1Cl | 962 s
CCCn1c(=O)c2cc(C(=O)Nc3cc(Cl)ccc3F)nn2c2ccccc21 | 1220 s
CC1=NOC(C)(CNC(=O)NC2CCCC2)C1 (stereo not drawn) | 633 s

SMILES | RP-LC retention time
COC(=O)c1ccc2c(=O)n(-c3cc(C)cc(C)c3)c(N3CCOCC3)nc2c1 | 1040 s
Cc1noc(C)c1CN1CCN(C(=O)c2cc(F)cc(F)c2)CC1 | 563 s
Cc1ccccc1Cn1cc(C(=O)O)c(S(=O)(=O)N2CCSCC2)n1 | 848 s
COCC(C)NC(=O)C(=O)c1cn(CC(=O)N2CCOCC2)c2ccccc12 (stereo not drawn) | 704 s
COc1ccc2c(c1)sc1ncc(C(=O)N3CCN(c4ccccn4)CC3)c(=O)n12 | 589 s
CCOC(=O)N1CCN(c2nc(F)c3c(c2F)S(=O)(=O)CCN3Cc2ccco2)CC1 | 962 s
O=C(Cc1cccs1)N1CCC(Nc2ncnc3c2CCC3)CC1 | 590 s
CC(=O)Nc1ccc(NC(=O)C2CC(=O)N(c3ccc4c(c3)CCN4C(=O)C3CC3)C2)cc1 (stereo not drawn) | 658 s
COc1ccc(Cc2nc3nccc(-c4ccc(OC)cc4)n3n2)cc1 | 878 s
Cc1ccc(NC(=O)Cn2cnc3nc(N4CCC(C(=O)NC5CC5)CC4)sc3c2=O)c(C)c1 | 678 s
COc1ccc(N2CCN(c3ncc4c(n3)CCN(Cc3ccc(C)cc3)C4)CC2)cc1 | 675 s
O=C(C(=O)N1CCOCC1)c1c(-c2ccccc2)cc2ccccn12 | 798 s
CCOC(=O)C1CCN(C(=O)CCc2cc3cc(C)ccc3[nH]c2=O)CC1 | 729 s
Cc1ccc(-c2noc(CN3N=NC4C(=O)N(c5ccc(C)c(Cl)c5)C(=O)C43)n2)cc1 (stereo not drawn) | 1100 s
O=C(c1ccsc1)N1CCCC1c1nc(CCOCC2CCCC2)no1 (stereo not drawn) | 980 s
Cc1ccc(-c2cc(C(=O)N3CCN(c4ccccn4)CC3)ccn2)s1 | 639 s
